Experimental data reported in patent US11919902B2, “Aryl-bipyridine amine derivatives as phosphatidylinositol phosphate kinase inhibitors” (HiberCell, Inc., priority 2017, dated 2024).

Assays:
[1] = target: T1, PIP4K2A (full length protein, SignalChem) (Homo sapiens, UniProt P48426); experiment: Kinase Assay PIP4K2 A (Sprint); ADP-Glo biochemical assay; details: Table 2; compounds listed under IC50 range headings
T1 construct: 4 nM PIP4K2A (full length protein, SignalChem); purchased SignalChem
T1 sequence (P48426 1-406): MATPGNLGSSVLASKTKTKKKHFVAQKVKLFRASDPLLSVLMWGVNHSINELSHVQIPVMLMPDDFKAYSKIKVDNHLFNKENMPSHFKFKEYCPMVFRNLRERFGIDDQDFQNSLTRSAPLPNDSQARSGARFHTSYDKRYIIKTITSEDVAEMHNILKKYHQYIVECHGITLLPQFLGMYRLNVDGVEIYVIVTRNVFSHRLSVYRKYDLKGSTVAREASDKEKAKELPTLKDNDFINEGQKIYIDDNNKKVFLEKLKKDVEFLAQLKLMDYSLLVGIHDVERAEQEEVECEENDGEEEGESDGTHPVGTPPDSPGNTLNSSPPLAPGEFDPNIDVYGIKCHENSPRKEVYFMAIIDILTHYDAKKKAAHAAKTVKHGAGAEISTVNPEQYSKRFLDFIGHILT
Method in brief: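 ADP-Glo luminescence detected ADP after a 1 h RT reaction started with 60 μM ATP solution. Before that, full-length PIP4K2A (4 nM in mix) with 100 μM PI(5)P diC8 was pre-incubated 15 min with compounds in MOPS buffer pH 7.2, 25 mM MgCl2, 0.005% Tween 20. IC50 derived from % inhibition relative to DMSO over 10 three-fold concentrations.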

GST tagged PIP4KtypeIIA = target: T2, GST tagged PIP4KtypeIIA (Homo sapiens, UniProt P48426); experiment: ADP-glo kinase assay PIP4K 2A (PIP4KtypeIIA inhibition assay); assay type: biochemical; details: Table 3; compounds listed under IC50 range headings; 10 uM ATP, 0.5 nM PIP4KIIA
T2 construct: made in house; host or cells: E. coli
T2 sequence (P48426 1-406): T1 sequence (P48426 1-406)
Method in brief: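 Read-out was ADP-Glo luminescence converted to μM ADP, with IC50 plotted as % of no-inhibitor activity against log concentration. Reactions contained 10 μM ATP, 80 μM PI5P with DOPE carrier, and 0.5 nM GST-tagged PIP4KIIA (E. coli-expressed) in pH 7.3 HEPES/MgCl2 buffer with 5% DMSO. Enzyme and compound (≤4.8 μM) were preincubated 1 h at 27 °C before the 1 h reaction.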

GST tagged PIP4KtypeIIB = target: T3, GST tagged PIP4KtypeIIB (Homo sapiens, UniProt P78356); experiment: Trans-FI P kinase assay PIP4K2B (PIP4KtypeIIB inhibition assay); assay type: biochemical; details: Table 4; compounds listed under IC50 range headings; 100 uM GTP, 5 nM PIP4KIIB; read-out: Trans-FI P kinase assays: PIP4K2B IC50
T3 construct: made in house; host or cells: E. coli
T3 sequence (P78356 1-416): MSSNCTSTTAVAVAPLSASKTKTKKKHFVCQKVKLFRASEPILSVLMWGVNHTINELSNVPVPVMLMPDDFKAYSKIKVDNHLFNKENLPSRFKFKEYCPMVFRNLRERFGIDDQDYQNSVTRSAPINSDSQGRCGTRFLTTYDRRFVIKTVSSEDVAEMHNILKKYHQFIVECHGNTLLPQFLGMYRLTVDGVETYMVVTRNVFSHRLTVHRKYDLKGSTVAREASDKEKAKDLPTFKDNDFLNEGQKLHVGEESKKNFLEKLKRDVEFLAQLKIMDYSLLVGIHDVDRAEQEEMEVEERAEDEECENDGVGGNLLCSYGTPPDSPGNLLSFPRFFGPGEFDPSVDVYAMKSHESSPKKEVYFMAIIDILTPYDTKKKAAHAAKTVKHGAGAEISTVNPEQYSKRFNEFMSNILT
Method in brief: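 Transcreener FI fluorescence, converted to GDP by calibration, tracked product from 5 nM E. coli-expressed GST-PIP4KIIB acting on 80 uM PI5P (DOPE carrier) with 100 uM GTP. Compound (top 4.8 uM final, 5% DMSO) was preincubated 1 h at 27 C before the 2 h reaction; IC50 fitted from residual activity.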

IC50 [1] | IC50 (GST tagged PIP4KtypeIIA) | IC50 (GST tagged PIP4KtypeIIB) | Compound
100 to 1000 nM | 100 to 1000 nM | 100 to 1000 nM | CN1CCn2c(cc3c(-c4cncc(-c5ccc(N6CCCCC6=O)cc5)c4)ccnc32)C1=O [Example 346, 7-methyl-4-(5-(4-(2-oxopiperidin-1-yl)phenyl)pyridin-3-yl)-8,9-dihydropyrido[3′,2′:4,5]pyrrolo[1,2-a]pyrazin-6(7H)-one]
100 to 1000 nM | 100 to 1000 nM | 10 to 100 nM | CN1CCn2c(cc3c(-c4cncc(-c5ccc(C(=O)N6CCCCC6)cc5)c4)ccnc32)C1=O [Example 354, 7-methyl-4-(5-(4-(piperidine-1-carbonyl)phenyl)pyridin-3-yl)-8,9-dihydropyrido[3′,2′:4,5]pyrrolo[1,2-a]pyrazin-6(7H)-one]
5 to 100 nM | 10 to 100 nM | 100 to 1000 nM | Cn1cc(-c2cnc(N)nc2)c2cc(-c3cncc(-c4ccc(N5CCCC5=O)cc4)c3)cnc21 [Example 355, 1-(4-(5-(3-(2-aminopyrimidin-5-yl)-1-methyl-1H-pyrrolo[2,3-b]pyridin-5-yl)pyridin-3-yl)phenyl)pyrrolidin-2-one]
100 to 1000 nM | 100 to 1000 nM | 10 to 100 nM | CC(C)n1cnnc1-c1ccc(-c2cncc(-c3ccnc4c3cc3n4CCN(C)C3=O)c2)cc1 [Example 384, 4-(5-(4-(4-isopropyl-4H-1,2,4-triazol-3-yl)phenyl)pyridin-3-yl)-7-methyl-8,9-dihydropyrido[3′,2′:4,5]pyrrolo[1,2-a]pyrazin-6(7H)-one]
